Data on eleven compounds can be found in ChEMBL document CHEMBL1201862, “PubChem BioAssay data set” (2004).

Test systems include HOP-62; HOP-92; HT-29; IGROV-1; MOLT-4; OVCAR-5; RPMI-8226; SF-539; SK-MEL-28; SK-MEL-2; SK-MEL-5; SN12C; T47D; TK-10; U-251; UACC-257; UACC-62; UO-31; CCRF-CEM; OVCAR-3.
What all share (assay): NCI tumour cell line growth inhibition, 48 h

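Method: 48-hour compound exposure of cells in 96-well plates, five concentrations, linear interpolation of endpoints. GI50 marks 50% less growth.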 Activity calls are given as the source filed them. Cut-off read from the data, not from the text of the source: active = GI50 up to about 1.1 µM and inactive = higher.

Regarding `O=C(CSCC(=O)N/N=C/c1ccc(F)cc1)N/N=C/c1ccc(F)cc1`, the GI50 was > 100 µM (inactive) in the assay on HOP-62; > 100 µM (inactive) with HOP-92; > 100 µM (inactive) in the assay on HT-29; > 100 µM (inactive) with IGROV-1; 25.2 µM (inactive) in the assay with MOLT-4; > 100 µM (inactive) with OVCAR-5. Further, the GI50 was 60.8 µM (inactive) in the assay with RPMI-8226; > 100 µM (inactive) in the assay with SF-539; > 100 µM (inactive) in the assay with SK-MEL-28; > 100 µM (inactive) with SK-MEL-2; > 100 µM (inactive) in the assay on SK-MEL-5; > 100 µM (inactive) with SN12C. The GI50 in the assay on T47D is > 100 µM (inactive); in the assay on TK-10 it was > 100 µM (inactive); with U-251 it was > 100 µM (inactive); in the assay on UACC-257, > 100 µM (inactive); in the assay with UACC-62, > 100 µM (inactive); in the assay on UO-31 it was 48.6 µM (inactive).
In the case of `CCN1CN(c2ccccc2)C2(CCN(CC3COc4ccccc4O3)CC2)C1=O` (stereo not given), the GI50 with CCRF-CEM is 18.4 µM (inactive); with HOP-62, 35.6 µM (inactive); in the assay with HT-29, 20.1 µM (inactive); in the assay with IGROV-1, 53.7 µM (inactive); with MOLT-4, 14.5 µM (inactive); in the assay with OVCAR-3, 31.2 µM (inactive). Besides, the GI50 in the assay with OVCAR-5 is 24.3 µM (inactive); with RPMI-8226, 17.4 µM (inactive); in the assay with SF-539, 18.6 µM (inactive); with SK-MEL-28, 32.5 µM (inactive); with SK-MEL-2 it was 13.2 µM (inactive); with SK-MEL-5, 18.2 µM (inactive). The GI50 with SN12C is 41.5 µM (inactive); with T47D it was 24.3 µM (inactive); in the assay on TK-10 it was 25.8 µM (inactive); in the assay with U-251 it was 30.6 µM (inactive); with UACC-257 it was 35.3 µM (inactive); with UACC-62 it was 23.3 µM (inactive). Besides, the GI50 in the assay on UO-31 is 29 µM (inactive).
For `COC(=O)C1=C(CCCCO[Si](C)(C)C(C)(C)C)NC(=O)N2[C@@H](CCOCc3ccccc3)CC[C@H]12`, the GI50 is 17.9 µM (inactive) with CCRF-CEM; 24.2 µM (inactive) in the assay with HOP-62; 15.5 µM (inactive) in the assay on HOP-92; 12.3 µM (inactive) with HT-29; 18.4 µM (inactive) with MOLT-4; 13.4 µM (inactive) with OVCAR-3. In addition, the GI50 with OVCAR-5 is 33.1 µM (inactive); in the assay on RPMI-8226, 23.4 µM (inactive); with SK-MEL-28, 30.5 µM (inactive); with SK-MEL-2 it was 16.2 µM (inactive); in the assay on SK-MEL-5, 10.3 µM (inactive); in the assay on SN12C it was 16.7 µM (inactive). Besides, the GI50 in the assay with T47D was 15.8 µM (inactive); with TK-10, 40.3 µM (inactive); with U-251, 14.4 µM (inactive); in the assay with UACC-257, 21.1 µM (inactive); in the assay with UACC-62 it was 24.3 µM (inactive); in the assay with UO-31, 19.5 µM (inactive).
In the case of `CC(C)/C(Cl)=N/OC(=O)Nc1cccc(C(F)(F)F)c1`, the GI50 was 0.532 µM (active) in the assay on CCRF-CEM; 18.1 µM (inactive) in the assay on HOP-62; 1.75 µM (inactive) with HOP-92; 4.98 µM (inactive) in the assay on HT-29; 13.4 µM (inactive) in the assay on IGROV-1; 1.67 µM (inactive) with MOLT-4. Besides, the GI50 with OVCAR-3 is 3.84 µM (inactive); in the assay with OVCAR-5 it was 18.9 µM (inactive); in the assay on RPMI-8226, 1.56 µM (inactive); with SK-MEL-28, 5.45 µM (inactive); with SK-MEL-2, 17.8 µM (inactive); in the assay with SK-MEL-5 it was 8.05 µM (inactive). Also, the GI50 was 7.1 µM (inactive) in the assay on SN12C; 4.1 µM (inactive) in the assay with T47D; 3.5 µM (inactive) in the assay with TK-10; 17 µM (inactive) with U-251; 15.4 µM (inactive) with UACC-257; 13.6 µM (inactive) in the assay on UACC-62. Besides, in the assay on UO-31, the GI50 is 7.96 µM (inactive).
For the compound `C/C=C\C(CC(=O)NCCc1c[nH]c2ccccc12)CC(=O)OC` (stereo not given), the GI50 with HOP-62, in the assay with HOP-92, in the assay with HT-29, with IGROV-1, with MOLT-4 and with OVCAR-3 was > 100 µM (inactive) throughout. For the same compound, the GI50 with OVCAR-5, in the assay on RPMI-8226, with SK-MEL-28, with SK-MEL-2, in the assay with SK-MEL-5 and in the assay with T47D was > 100 µM (inactive) throughout. Besides, the GI50 in the assay on TK-10, in the assay with U-251, in the assay on UACC-257, in the assay with UACC-62 and in the assay on UO-31 was > 100 µM (inactive) throughout.
With `CC(=O)C(C(=O)c1ccc(C)cc1)[C@H]1OC(C)(C)O[C@H]1[C@H]1COC(C)(C)O1` (stereo not given in full), the GI50 is 6.12 µM (inactive) with HOP-62; 7.98 µM (inactive) in the assay with HOP-92; 2.2 µM (inactive) with HT-29; 3.17 µM (inactive) in the assay with IGROV-1; 1.66 µM (inactive) in the assay with MOLT-4; 8.39 µM (inactive) in the assay with OVCAR-5. The GI50 with RPMI-8226 is 1.6 µM (inactive); in the assay with SF-539, 1.87 µM (inactive); in the assay with SK-MEL-28, 6.18 µM (inactive); in the assay with SK-MEL-2, 2.92 µM (inactive); in the assay with SK-MEL-5 it was 5.08 µM (inactive); in the assay on SN12C it was 1.9 µM (inactive). Also, the GI50 was 6.53 µM (inactive) with T47D; 7.73 µM (inactive) with TK-10; 1.91 µM (inactive) in the assay with U-251; 5.31 µM (inactive) in the assay on UACC-257; 6.1 µM (inactive) with UACC-62; 6.98 µM (inactive) with UO-31.
As for `CCCC(=O)OC1CC(n2cc(F)c(=O)[nH]c2=O)OC1COP(=O)(OCC(Cl)(Cl)Cl)OCC(Cl)(Cl)Cl` (stereo not given), the GI50 with CCRF-CEM was 0.372 µM (active); in the assay on HOP-62, 0.131 µM (active); in the assay on HOP-92, 4.99 µM (inactive); with HT-29, 13.7 µM (inactive); in the assay with IGROV-1 it was 14.8 µM (inactive); in the assay on MOLT-4 it was 2.48 µM (inactive). The GI50 is 4.24 µM (inactive) in the assay on OVCAR-3; 28.4 µM (inactive) with OVCAR-5; 1.47 µM (inactive) in the assay on RPMI-8226; 12.3 µM (inactive) in the assay on SK-MEL-28; > 59.4 µM (inactive) in the assay with SK-MEL-2; 2.44 µM (inactive) in the assay with SK-MEL-5. The GI50 with SN12C is 22 µM (inactive); in the assay on T47D it was 20.7 µM (inactive); with TK-10 it was 22.5 µM (inactive); with U-251, 4.02 µM (inactive); in the assay on UACC-257, 21.7 µM (inactive); in the assay with UACC-62, 2.06 µM (inactive). In addition, the GI50 in the assay on UO-31 was 0.49 µM (active).
For the compound `CC(=O)Oc1ccc(/C=C/C(=O)O[C@@H](C(=O)O)[C@@H](OC(=O)/C=C/c2ccc(OC(C)=O)c(OC(C)=O)c2)C(=O)O)cc1OC(C)=O`, the GI50 with CCRF-CEM, in the assay with HOP-62, in the assay on HOP-92, with IGROV-1, with OVCAR-3 and in the assay with OVCAR-5 was > 100 µM (inactive) each time. Moreover, the GI50 with RPMI-8226, with SK-MEL-28, with SK-MEL-2, in the assay on SK-MEL-5, in the assay on SN12C and in the assay with T47D was > 100 µM (inactive) each time. In addition, the GI50 with TK-10, with U-251, with UACC-257, in the assay on UACC-62 and with UO-31 was > 100 µM (inactive) in each case.
`O=C1Nc2ccccc2/C1=N/Nc1nc(-c2ccc([N+](=O)[O-])cc2)cs1`: the GI50 with HOP-62 is > 100 µM (inactive); in the assay on HOP-92 it was 17.4 µM (inactive); in the assay on HT-29 it was 22.9 µM (inactive); in the assay on IGROV-1, 18.7 µM (inactive); in the assay with MOLT-4, 51.9 µM (inactive); in the assay with OVCAR-3, 30.8 µM (inactive). Further, the GI50 in the assay with OVCAR-5 is 22 µM (inactive); in the assay with SF-539, 17.1 µM (inactive); with SK-MEL-28, 29.7 µM (inactive); with SK-MEL-2, 26.9 µM (inactive); in the assay on SK-MEL-5, 31.7 µM (inactive); in the assay on SN12C, 27 µM (inactive). In addition, the GI50 in the assay with T47D was 29.1 µM (inactive); in the assay on TK-10, 17.5 µM (inactive); in the assay with U-251, 57 µM (inactive); with UACC-257, 32.1 µM (inactive); in the assay with UO-31 it was 11.4 µM (inactive).
For `Cc1c(-c2ccccc2)nn2cc(-c3ccccc3)nnc12`, the GI50 in the assay with CCRF-CEM was 27.4 µM (inactive); in the assay with HOP-62 it was 28.7 µM (inactive); in the assay with HOP-92, 15.5 µM (inactive); with HT-29, 24.2 µM (inactive); with IGROV-1, 21.7 µM (inactive); in the assay on MOLT-4, 35.5 µM (inactive). For the same compound, the GI50 with OVCAR-3 is 32.7 µM (inactive); in the assay with OVCAR-5, 30.7 µM (inactive); in the assay on RPMI-8226, 35.5 µM (inactive); in the assay with SK-MEL-28 it was 27.6 µM (inactive); in the assay with SK-MEL-2 it was 15.1 µM (inactive); in the assay with SK-MEL-5, 16.3 µM (inactive). The GI50 is 37.9 µM (inactive) in the assay on SN12C; 61.2 µM (inactive) in the assay with T47D; 42.4 µM (inactive) in the assay on TK-10; 19.2 µM (inactive) with U-251; 23.4 µM (inactive) in the assay on UACC-257; 17.9 µM (inactive) in the assay with UACC-62. Also, the GI50 with UO-31 was 29.1 µM (inactive).
With `Cc1cc(C)c2nccc(NCCCN(C)C)c2c1[N+](=O)[O-]`, the GI50 with CCRF-CEM is 37.2 µM (inactive); in the assay on HOP-62, 47.9 µM (inactive); in the assay with HT-29 it was 18.7 µM (inactive); with IGROV-1, 19.6 µM (inactive); in the assay on MOLT-4 it was 39.6 µM (inactive); in the assay on OVCAR-3 it was 35.5 µM (inactive). Moreover, the GI50 in the assay with OVCAR-5 is 44 µM (inactive); with RPMI-8226, 34.6 µM (inactive); in the assay with SF-539, 34.9 µM (inactive); with SK-MEL-28, 19.6 µM (inactive); in the assay with SK-MEL-2, 23.8 µM (inactive); in the assay with SK-MEL-5 it was 13.5 µM (inactive). Also, the GI50 is 40.9 µM (inactive) in the assay with SN12C; 33.3 µM (inactive) in the assay on T47D; 30.8 µM (inactive) in the assay on TK-10; 52.5 µM (inactive) with U-251; 17.1 µM (inactive) with UACC-257; 34.1 µM (inactive) in the assay on UACC-62. For the same compound, the GI50 in the assay on UO-31 is 20.3 µM (inactive).
